# Target: human α7 nAChR (Homo sapiens (Human), UniProt P36544)
# Assay: Automated patch-clamp electrophysiology functional assay (Assay A)
# Format: cell-based
# Settings: IonFlux HT whole-cell population patch, HEK cells expressing human α7/RIC-3, 40 μM acetylcholine
# Procedure: The α7 nAChR positive allosteric modulator (PAM) activity of the present compounds may be tested using assays known in the art. The α7 nAChR PAMs described herein have activities in an automated patch-clamp electrophysiology functional assay as described in the examples. The assay was performed using the IonFlux HT in a whole-cell, population patch configuration. See Golden et al. Assay Drug Dev. Technol. (2011) 9:608-619. The compounds were assessed for their ability to modulate the function of the human α7 nAChR stably expressed in a HEK cell line both in the presence, and in the absence of the natural α7 agonist acetylcholine. By performing a series of such measurements at different concentrations, the effective concentration of the α7 nAChR PAMs (EC50) was determined. See Spencer et al. Assay Drug Dev. Technol. (2012) 10:313-324.
# Direct activation of α7 (agonism), and potentiation of acetylcholine-evoked α7 currents was determined as follows:
# Automated Patch-Clamp Electrophysiology Functional Assay (Assay A)
# Automated patch-clamp electrophysiology was performed using the IonFluxHT (Fluxion Biosciences Inc., San Francisco, CA) in the whole-cell, population patch configuration. Test compounds were assessed for their ability to modulate the function of the α7 nicotinic acetylcholine receptor both in the presence, and in the absence of the natural α7 agonist acetylcholine. A HEK cell line stably expressing both human RIC-3 and human α7 (PrecisION hnAChR α7/RIC-3, Eurofins Pharma, St. Charles, MO) was cultured in 175 cm^2 triple-layer tissue culture flasks to no more than 90% confluency in DMEM/F-12 growth media supplemented with 10% heat-inactivated fetal bovine serum, 1% non-essential amino acids, 0.625 μg/mL Puromycin, and 400 μg/mL Geneticin. Immediately prior to assay, cells were detached by first aspirating growth media, rinsing with Dulbecco's phosphate buffered saline, and then adding 10 mL of Accutase (Innovative Cell Technologies, San Diego, CA) to the flask and then incubating at 37° C. for 5 minutes. Detached cells were then recovered by the addition of 40 mL of CHO-serum-free media supplemented with 25 mM HEPES, and rocked gently in a 50 mL conical tube for 20 minutes prior to patch-clamp assay. After recovery, cells were pelleted by centrifugation at 1,000 RPM for 1 minute in a compact bench top centrifuge; recovery media was aspirated and cells were resuspended in external recording solution (150 mM NaCl, 5 mM KCl, 2 mM CaCl2), 1 mM MgCl2, 10 mM HEPES, 12 mM dextrose) to a density of 5.0×10^6 cells/mL. The cell suspension was added to the cell inlet wells on an IonFlux HT population patch plate which had previously been rinsed and primed with deionized H2O. Test compounds were serially diluted in DMSO and then resuspended to the final test concentration in external recording solution, with, or without 40 μM acetylcholine added to the external recording solution; test compounds were then transferred to the IonFlux HT population patch plate. Internal recording solution (110 mM TrisPO4, 28 mM TrisBase, 0.1 mM CaCl2), 2 mM MgCl2, 11 mM EGTA, 4 mM MgATP) was added to the internal recording solution inlet wells on the IonFlux HT patch plate previously loaded with cells and test compounds, and the plate loaded into the IonFlux HT instrument. A protocol was executed on the IonFlux HT to trap the cells, break into the cells, and establish the whole-cell recording configuration; cells were voltage-clamped at a holding potential of −60 mV for the duration of the experiment, all experiments were conducted at room temperature, and the IonFlux HT injection pressure was 8 psi for solution applications. Upon establishing the whole-cell configuration, external recording solution was perfused into the recording chambers for 120 seconds and then 40 μM acetylcholine was applied for 1 second and immediately washed off with external recording solution for 60 seconds. […]
# Chain of human α7 nAChR (P36544 23-502): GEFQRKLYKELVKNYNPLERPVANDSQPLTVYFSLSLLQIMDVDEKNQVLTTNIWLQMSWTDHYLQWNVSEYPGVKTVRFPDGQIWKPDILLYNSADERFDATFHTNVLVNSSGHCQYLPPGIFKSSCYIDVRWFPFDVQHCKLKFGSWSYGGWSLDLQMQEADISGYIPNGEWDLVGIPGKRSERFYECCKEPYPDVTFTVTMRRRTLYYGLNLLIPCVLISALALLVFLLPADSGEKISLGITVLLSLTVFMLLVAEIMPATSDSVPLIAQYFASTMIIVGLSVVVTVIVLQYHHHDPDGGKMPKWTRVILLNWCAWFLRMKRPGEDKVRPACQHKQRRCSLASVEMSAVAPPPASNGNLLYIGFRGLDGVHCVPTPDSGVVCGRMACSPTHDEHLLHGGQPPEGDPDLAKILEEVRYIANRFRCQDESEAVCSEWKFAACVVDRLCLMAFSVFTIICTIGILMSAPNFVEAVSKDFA
Compound,EC50 (electrophysiology EC50 values) [µM],EC50 (potency class) [µM]
"O=C(N[C@@H]1CCc2c(O)cccc21)C1C2Oc3ccc(F)cc3C21 (mixture of isomers) [Example C10, exo-5-fluoro-N-(4-hydroxy-2,3-dihydro-1H-inden-1-yl)-1a,6b-dihydro-1H-cyclopropa[b][1]benzofuran-1-carboxamide]",1.6,0.5 to 5
"COC(=O)[C@@H](NC(=O)C1C2Oc3ccc(F)cc3C21)c1cccc(F)c1 (mixture of isomers) [Example C13, methyl 2-(3-fluorophenyl)-2-[(exo-5-fluoro-1a,6b-dihydro-1H-cyclopropa[b][1]benzofuran-1-carbonyl)amino]acetate]",3.5,0.5 to 5
"CCOc1ccc([C@H](COC)NC(=O)C2C3Cc4ccccc4C32)cc1 (single isomer, unassigned) [Example 1]",0.76,0.5 to 5
"CCOc1ccc([C@H](COC)NC(=O)C2C3Cc4ccccc4C32)cc1 (single isomer, unassigned) [Example 2]",0.072,≤ 0.1
"CCOc1ccc([C@H](COC)NC(=O)C2C3Oc4ccc(-c5cn(Cc6ccccc6)nn5)cc4C32)cc1 (single isomer, unassigned) [Example 6]",1.1,0.5 to 5
"COC(CNC(=O)[C@@H]1[C@H]2COc3ccc(F)cc3[C@H]21)C1CCCCC1 (single isomer, unassigned) [Example A4, exo-N-(2-cyclohexyl-2-methoxyethyl)-6-fluoro-1,1a,2,7b-tetrahydrocyclopropa[c][1]benzopyran-1-carboxamide]",,0.5 to 5
"O=C(N[C@@H](CO)C1CCCCC1)C1C2COc3ccc(F)cc3C21 (stereo partly drawn) [Example 3, exo-N-[(1R)-1-Cyclohexyl-2-hydroxyethyl]-6-fluoro-1,1a,2,7b-tetrahydrocyclopropa[c][1]benzopyran-1-carboxamide]",1.7,0.5 to 5
"COc1cc([C@@H](NC(=O)C2C3COc4ccc(F)cc4C32)C(F)(F)F)ccn1 (stereo partly drawn) [Example 4, exo-6-Fluoro-N-[(1R)-2,2,2-trifluoro-1-(2-methoxypyridin-4-yl)ethyl]-1,1a,2,7b-tetrahydrocyclopropa[c][1]benzopyran-1-carboxamide]",1.1,0.5 to 5
"CCOc1ccc([C@H](COC)NC(=O)C2C3Oc4ccc(-c5nn[nH]n5)cc4C32)cc1 (stereo partly drawn) [Example 5, exo-N-[(1R)-1-(4-Ethoxyphenyl)-2-methoxyethyl]-5-(2H-tetrazol-5-yl)-1a,6b-dihydro-1H-cyclopropa[b][1]benzofuran-1-carboxamide]",1.5,0.5 to 5
"O=C(NCc1nc(-c2ccccc2)no1)C1C2Oc3ccc(F)cc3C21 (stereo not drawn) [Example 7, exo-5-Fluoro-N-[(3-phenyl-1,2,4-oxadiazol-5-yl)methyl]-1a,6b-dihydro-1H-cyclopropa[b][1]benzofuran-1-carboxamide]",0.05,≤ 0.1
"O=C(NC1(c2ccc(F)cc2)COC1)C1C2COc3ccccc3C21 (stereo not drawn) [Example A1, exo-N-[3-(4-fluorophenyl)oxetan-3-yl]-1,1a,2,7b-tetrahydrocyclopropa[c][1]benzopyran-1-carboxamide]",1.5,0.5 to 5
"O=C(NC1(c2ccc(F)cc2)COC1)C1C2COc3ccc(F)cc3C21 (stereo not drawn) [Example A2, exo-6-fluoro-N-[3-(4-fluorophenyl)oxetan-3-yl]-1,1a,2,7b-tetrahydrocyclopropa[c][1]benzopyran-1-carboxamide]",1.2,0.5 to 5
"CCOc1ccc([C@H](CO)NC(=O)C2C3COc4ccc(F)cc4C32)cn1 (stereo partly drawn) [Example A3, exo-N-[(1R)-1-(6-ethoxypyridin-3-yl)-2-hydroxyethyl]-6-fluoro-1,1a,2,7b-tetrahydrocyclopropa[c][1]benzopyran-1-carboxamide]",2.2,0.5 to 5
"O=C(NC1(c2ccc(F)cc2)CC(O)C1)C1C2COc3ccccc3C21 (stereo not drawn) [Example A5, exo-N-[1-(4-fluorophenyl)-3-hydroxycyclobutyl]-1,1a,2,7b-tetrahydrocyclopropa[c][1]benzopyran-1-carboxamide]",4.6,0.5 to 5
"O=C(N[C@@H](CO)C1CCCCC1)C1C2COc3ccccc3C21 (stereo partly drawn) [Example A6, exo-N-[(1R)-1-cyclohexyl-2-hydroxyethyl]-1,1a,2,7b-tetrahydrocyclopropa[c][1]benzopyran-1-carboxamide]",1.1,0.5 to 5
"O=C(N[C@@H](C(F)F)C1CCCCC1)C1C2COc3ccc(F)cc3C21 (stereo partly drawn) [Example A7, exo-N-[(1R)-1-cyclohexyl-2,2-difluoroethyl]-6-fluoro-1,1a2,7b-tetrahydrocyclopropa[c][1]benzopyran-1-carboxamide]",0.8,0.5 to 5
"O=C(NC1(c2ccccc2)CCC1)C1C2COc3ccc(F)cc3C21 (stereo not drawn) [Example A8, exo-6-fluoro-N-(1-phenylcyclobutyl)-1,1a,2,7b-tetrahydrocyclopropa[c][1]benzopyran-1-carboxamide]",1,0.5 to 5
"O=C(NC1(c2ccc(F)cc2)CC1)C1C2COc3ccc(F)cc3C21 (stereo not drawn) [Example A9, exo-6-fluoro-N-[1-(4-fluorophenyl)cyclopropyl]-1,1a,2,7b-tetrahydrocyclopropa[c][1]benzopyran-1-carboxamide]",1.1,0.5 to 5
"COc1cc(C2(NC(=O)C3C4COc5ccccc5C43)CC2)ccn1 (stereo not drawn) [Example A10, exo-N-[1-(2-methoxypyridin-4-yl)cyclopropyl]-1,1a,2,7b-tetrahydrocyclopropa[c][1]benzopyran-1-carboxamide]",,0.5 to 5
"CCOc1ccc(C2(NC(=O)C3C4COc5ccccc5C43)CCC2)cn1 (stereo not drawn) [Example A11, exo-N-[1-(6-ethoxypyridin-3-yl)cyclobutyl]-1,1a,2,7b-tetrahydrocyclopropa[c][1]benzopyran-1-carboxamide]",0.62,0.5 to 5
"COc1cc(C2(NC(=O)C3C4COc5ccccc5C43)CCC2)ccn1 (stereo not drawn) [Example A12, exo-N-[1-(2-methoxypyridin-4-yl)cyclobutyl]-1,1a,2,7b-tetrahydrocyclopropa[c][1]benzopyran-1-carboxamide]",1.5,0.5 to 5
"CCOc1ccc([C@@H](NC(=O)C2C3COc4ccc(F)cc4C32)C(F)(F)F)cn1 (stereo partly drawn) [Example A13, exo-N-[(1R)-1-(6-ethoxypyridin-3-yl)-2,2,2-trifluoroethyl]-6-fluoro-1,1a,2,7b-tetrahydrocyclopropa[c][1]benzopyran-1-carboxamide]",1.1,0.5 to 5
"CCOc1ccc([C@@H](NC(=O)C2C3COc4ccc(F)cc4C32)C(F)F)cn1 (stereo partly drawn) [Example A14, exo-N-[(1R)-1-(6-ethoxypyridin-3-yl)-2,2-difluoroethyl]-6-fluoro-1,1a,2,7b-tetrahydrocyclopropa[c][1]benzopyran-1-carboxamide]",1.1,0.5 to 5
"CCOc1ccc([C@H](CF)NC(=O)C2C3COc4ccc(F)cc4C32)cn1 (stereo partly drawn) [Example A15, exo-N-[(1R)-1-(6-ethoxypyridin-3-yl)-2-fluoroethyl]-6-fluoro-1,1a,2,7b-tetrahydrocyclopropa[c][1]benzopyran-1-carboxamide]",1.5,0.5 to 5
"COc1cc([C@H](CF)NC(=O)C2C3COc4ccc(F)cc4C32)ccn1 (stereo partly drawn) [Example A16, exo-6-fluoro-N-[(1R)-2-fluoro-1-(2-methoxypyridin-4-yl)ethyl]-1,1a,2,7b-tetrahydrocyclopropa[c][1]benzopyran-1-carboxamide]",,0.5 to 5

# — patent US20240368109A1, “ALLOSTERIC MODULATORS OF NICOTINIC ACETYLCHOLINE RECEPTORS” (MERCK SHARP & DOHME LLC, priority 2021, published 2024)
